From ChEMBL document CHEMBL1136293, “Synthesis and evaluation of tripeptidyl alpha-ketoamides as human rhinovirus 3C protease inhibitors” (Bioorg Med Chem Lett, 2003)

Tests used:
[1] = target: T1, Human rhinovirus A protease (Human rhinovirus sp., UniProt Q4U254); experiment: Antiviral activity against human rhinovirus-14 (HRV-14) 3C protease using enzyme assay; format: functional, rhinovirus B14
T1 sequence (Q4U254 whole entry): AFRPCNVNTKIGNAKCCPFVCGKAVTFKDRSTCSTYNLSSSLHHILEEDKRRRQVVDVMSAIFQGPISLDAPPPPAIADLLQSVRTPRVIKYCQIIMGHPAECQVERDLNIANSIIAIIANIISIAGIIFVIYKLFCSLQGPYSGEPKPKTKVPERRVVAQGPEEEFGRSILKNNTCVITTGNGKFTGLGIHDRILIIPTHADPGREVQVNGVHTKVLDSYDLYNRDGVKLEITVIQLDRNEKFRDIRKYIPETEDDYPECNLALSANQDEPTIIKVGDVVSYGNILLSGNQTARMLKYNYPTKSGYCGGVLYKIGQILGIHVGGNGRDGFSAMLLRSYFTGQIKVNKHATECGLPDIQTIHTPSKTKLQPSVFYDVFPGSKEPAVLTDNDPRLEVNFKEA

rhinovirus B14 = experiment: (§1) Antiviral activity against human rhinovirus-14 (HRV-14) in HeLa-cells using cell assay; format: functional, organism-based, human rhinovirus type 14; details: Rhinovirus B
HeLa [2] = experiment: Cytotoxicity against HeLa cells was determined by using XTT cytotoxicity assay; format: functional; details: Homo sapiens, read-out: TC50 (the source's name)
HeLa [3] = experiment: Antiviral activity against human rhinovirus-16 (HRV-16) in HeLa-cells using cell assay; format: functional, cell-based
HeLa [4] = experiment: as §1; format: functional, cell-based
[5] = target: T1, Human rhinovirus A protease; experiment: Antiviral activity against human rhinovirus-14 (HRV-14) 3C protease using enzyme assay; inactive; format: functional, rhinovirus B14
HeLa [6] = experiment: Antiviral activity against human rhinovirus-16 (HRV-16) in HeLa-cells using cell assay; inactive; format: functional, cell-based

| SMILES | Ki [1] [µM] | EC50 (rhinovirus B14) [µM] | CC50 (HeLa [2]) [µM] | EC50 (HeLa [3]) [µM] | IC50 [1] [nM] | IC50 (HeLa [4]) [nM] | Ki [5] | EC50 (HeLa [6]) |
| --- | --- | --- | --- | --- | --- | --- | --- | --- |
| CCCC(NC(=O)C(Cc1ccccc1)NC(=O)[C@@H](NC(=O)OC(C)C)C(C)C)C(=O)C(=O)N[C@@H](C)c1ccccc1 (some centres not stated) | 0.5 | 1 | 62 | 10.1 | – | – | – | – |
| CCC[C@H](NC(=O)[C@H](Cc1ccccc1)NC(=O)[C@@H](NC(=O)OC(C)C)C(C)C)C(=O)C(=O)N[C@@H](C)c1ccccc1 | 0.17 | 0.85 | > 100 | ~10 | 170 | – | – | – |
| CCC[C@H](NC(=O)[C@H](Cc1ccccc1)NC(=O)[C@@H](NC(=O)OC(C)C)C(C)C)C(=O)C(=O)N[C@H](C)c1ccccc1 | 6.5 | 11.1 | – | – | – | – | – | – |
| CCC[C@H](NC(=O)[C@H](Cc1ccccc1)NC(=O)[C@@H](NC(=O)OC(C)C)C(C)C)C(=O)C(=O)N[C@@H](C)C1CCCCC1 | 6.5 | > 20 | 54.6 | – | – | – | – | – |
| CCCC(NC(=O)C1CCCN1C(=O)[C@@H](NC(=O)OC(C)C)C(C)C)C(=O)C(=O)N[C@@H](C)c1ccccc1 (some centres not stated) | 17.4 | 10.4 | > 100 | 43.3 | – | – | – | – |
| CCC[C@H](NC(=O)[C@H](Cc1ccccc1)NC(=O)[C@@H](NC(=O)OC(C)(C)C)C(C)C)C(=O)N[C@@H](C)c1ccccc1 | 7.4 | > 20 | > 100 | – | – | – | – | – |
| CCC[C@H](NC(=O)[C@H](Cc1ccccc1)NC(=O)[C@@H](NC(=O)OC(C)C)C(C)C)C(=O)C(=O)NCc1ccccc1 | 4.6 | 5.3 | > 100 | – | – | 2700 | – | – |
| CCC[C@H](NC(=O)[C@H](Cc1ccccc1)NC(=O)[C@@H](NC(=O)OC(C)(C)C)C(C)C)C(=O)NC[C@H](C)c1ccccc1 | 29.1 | > 15 | > 100 | – | – | – | – | – |
| CCCC(NC(=O)C(Cc1ccc(F)cc1)NC(=O)[C@@H](NC(=O)OC(C)C)C(C)C)C(=O)C(=O)N[C@@H](C)c1ccccc1 (some centres not stated) | 1.36 | 2.1 | > 100 | 37.3 | – | – | – | – |
| CCCC(NC(=O)[C@@H]1[C@H]2CC[C@H](F)[C@H]2CN1C(=O)[C@@H](NC(=O)OC(C)C)C(C)C)C(=O)C(=O)N[C@@H](C)c1ccccc1 (some centres not stated) | 5.5 | 5.8 | 82 | – | – | – | – | – |
| CCC[C@H](NC(=O)[C@H](Cc1ccccc1)NC(=O)[C@@H](NC(=O)OC(C)(C)C)C(C)C)C(=O)C(=O)N[C@H](C)c1ccccc1 | 0.71 | 1.3 | 30.3 | – | – | – | – | – |
| CCCC(NC(=O)C1(NC(=O)[C@@H](NC(=O)OC(C)C)C(C)C)CCCC1)C(=O)C(=O)N[C@@H](C)c1ccccc1 (some centres not stated) | – | > 20 | > 100 | – | – | – | Not Active | Not Active |
| CCCC(NC(=O)[C@@H]1[C@H]2CCC[C@H]2CN1C(=O)[C@@H](NC(=O)OC(C)C)C(C)(C)C)C(=O)C(=O)N[C@@H](C)c1ccccc1 (some centres not stated) | – | 7.7 | 57.8 | 25.7 | – | – | – | – |
| CCCC(NC(=O)[C@@H]1[C@H]2CC[C@H](F)[C@H]2CN1C(=O)[C@@H](NC(=O)OC(C)C)C(C)(C)C)C(=O)C(=O)N[C@@H](C)c1ccccc1 (some centres not stated) | 9.8 | 10 | 60.4 | – | – | – | – | – |
| CCCC(NC(=O)[C@@H]1[C@H]2CCC[C@H]2CN1C(=O)[C@@H](NC(=O)OC(C)C)C(C)C)C(=O)C(=O)N[C@@H](C)c1ccccc1 (some centres not stated) | 3 | 2.2 | 65.4 | ~10 | – | – | – | – |
